Measured values published in publication PMC10388305, “Synthesis and Evaluation of a Monomethyl Auristatin E—Integrin αvβ6 Binding Peptide–Drug Conjugate for Tumor Targeted Drug Delivery” (Journal of Medicinal Chemistry, 2023).
Square brackets hold non-standard residues; d marks the D form. Peptide text beside a SMILES is read from it. * marks the point of attachment. Dolaproine = CO[C@@H]([C@@H]1CCCN1)[C@@H](C)C(=O)O; Dil = CC[C@H](C)[C@H](NC)[C@@H](CC(=O)O)OC; X1 = C[C@@H](N*)[C@@H](O)c1ccccc1; NMeV = CN[C@H](C(=O)O)C(C)C

Columns and labels:
DX3puroβ6 (+) cells [1] = assay: WST-1 cell viability assay, DX3puroβ6; format: cell-based; conditions: DX3puroβ6 (+); 48 h treatment + 24 h media; mean ± SD
Protocol: (§1) Peptides NH2-2 and [^natCu]2 were not toxic to any cells (Figure 3, gray and black, respectively).
(§2) Cell viability was measured after treatment with either NH2-2, [^natCu]2, MMAE (free, non-targeted drug), NH2-PDC-1, or [^natCu]PDC-1 in DX3puroβ6 (+) and DX3puro (−) cells at variable concentrations up to 5 nM, and in BxPC-3 (+) and MIA PaCa-2 (−) cells at variable concentrations up to 250 nM, or with MMAE at concentrations up to 10 nM. Cells were seeded in a 96 well plate at a density of 6000 cells/well for DX3puroβ6 and DX3puro, and at a density of 10,000 cells/well for BxPC-3 and MIA PaCa-2. DMEM media was used for all cells except for BxPC-3 (RPMI 1640 media). Cells (n = 6–8 wells/cell type/compound) were treated with different concentrations of NH2-2, [^natCu]2, MMAE, NH2-PDC-1, or [^natCu]PDC-1 dissolved in the respective media, as well as their respective media (no treatment) for 48 h (37 °C, 5% CO2), after which the media was removed; cells were washed twice with media (200 μL) and re-incubated in media (37 °C, 5% CO2) for 24 h. The media was then removed and the WST-1 reagent was added to each well, and the cells were incubated for 2 h at 37 °C. The 96 well plates were read at 450 nm by a Multiscan Ascent microplate reader. The percent cell viability was normalized to untreated cells (set as 100% viability) for each cell line.

DX3puro (−) cells [2] = assay: WST-1 cell viability assay, DX3puro; format: cell-based; conditions: 48 h treatment + 24 h media, up to 5 nM, mean ± SD
Protocol: as §1, §2

BxPC-3 (+) cells [3] = assay: WST-1 cell viability assay, BxPC-3; format: cell-based; conditions: 48 h treatment + 24 h media, mean ± SD
Protocol: as §1, §2

MIA PaCa-2 (−) cells [4] = assay: WST-1 cell viability assay, MIA PaCa-2; format: cell-based; conditions: MIA PaCa-2 (−); 48 h treatment + 24 h media; up to 250 nM (MMAE up to 10 nM); mean ± SD
Protocol: as §1, §2

DX3puroβ6 (+) cells [5] = assay: Caspase-3/7 activity assay (ApoTox-Glo), DX3puroβ6; format: cell-based; conditions: DX3puroβ6 (+); 0.625 nM (MMAE 1 nM, staurosporine 100 nM); 24, 48, 72 h
Protocol: (§3) Caspase-3/7 activity was analyzed using an ApoTox-Glo Triplex Assay kit. Cells were seeded in a 96 well plate at the same density and using the same respective media as described for the WST-1 assay and incubated overnight (37 °C, 5% CO2). DX3puroβ6 and DX3puro cells were treated with 1 nM of MMAE (free, non-targeted drug) or 0.625 nM of the other compounds: NH2-2, [^natCu]2, NH2-PDC-1, or [^natCu]PDC-1. BxPC-3 and MIA PaCa-2 cells were treated with 10 nM of MMAE or 250 nM of the other compounds: NH2-2, [^natCu]2, NH2-PDC-1, or [^natCu]PDC-1. All cells were treated with 100 nM of staurosporine as a positive control.[24] Untreated cells (media) were used as a measure of endogenous caspase-3/7 activity (normalized to 1). Cells were treated (n = 4/cell line/compound/time) for 24, 48, or 72 h (37 °C, 5% CO2) prior to washing. After treatment, the media was removed, cells were washed, and Caspase-Glo 3/7 reagent was added, and incubated for 1 h at room temperature. Caspase-3/7 activity was analyzed by measuring luminescence with a Fluoroskan FL microplate reader according to the manufacturer’s protocol.

DX3puro (−) cells [6] = assay: Caspase-3/7 activity assay (ApoTox-Glo), DX3puro; format: cell-based; conditions: 0.625 nM (MMAE 1 nM, staurosporine 100 nM), 24, 48, 72 h
Protocol: as §3

BxPC-3 (+) cells [7] = assay: Caspase-3/7 activity assay (ApoTox-Glo), BxPC-3; format: cell-based; conditions: 250 nM (MMAE 10 nM, staurosporine 100 nM), 24, 48, 72 h
Protocol: as §3

MIA PaCa-2 (−) cells [8] = assay: Caspase-3/7 activity assay (ApoTox-Glo), MIA PaCa-2; format: cell-based; conditions: 250 nM (MMAE 10 nM, staurosporine 100 nM), 24, 48, 72 h
Protocol: as §3

[9] = system: DX3puroβ6 (+) and DX3puro (−) tumors; assay: Therapy study, control groups (half DX3puroβ6 (+), half DX3puro (−) tumors); format: in vivo, mice
Text: Mice treated with [^natCu]PDC-1 had slower tumor growth compared to the groups receiving saline, non-drug bearing peptide [^natCu]2, or free, non-targeted MMAE (Figure 7). […] All mice in the groups treated with saline, non-drug bearing peptide [^natCu]2, or free, non-targeted MMAE had met an end point criterion (≥2 cm in any direction and/or tumor ulceration) by 56 days, 70 days, and 64 days from start of treatment, respectively, with all these groups having the same median survival of 37 days (Figure 7B).
Figure 7 (A) Average tumor volume over time. (B) Kaplan–Meier survival plot.
Tumor xenografts were established by subcutaneous injection of either DX3puroβ6 or DX3puro cells (3 × 10^6 cells in 100 μL serum-free DMEM/animal) into the flank. The tumors were allowed to grow for 19 days before the start of treatment (day 0). […] Tumor volumes and body weights (to assess possible systemic toxicity) were measured starting on day 0, and once a week thereafter until the end of the study. Tumor volume (V) was determined according to the equation V = (π/6) × L × W × H, where L is the longest axis, W is the axis perpendicular to L, and H is perpendicular to the plane of L and W. End point determination criteria were: any axis >2 cm, active ulceration, or compromised health of the mouse (>20% loss of body weight from the start of the study). […] Survival curves were determined by Kaplan–Meier method.

[10] = cited from earlier work
Protocol: Tumor xenografts were established by subcutaneous injection of either DX3puroβ6 or DX3puro cells (3 × 10^6 cells in 100 μL serum-free DMEM/animal) into the flank. The tumors were allowed to grow for 19 days before the start of treatment (day 0). Mice were treated with either (1) saline, (2) peptide ([^natCu]2), 6 mg/kg, 1.12 μmol/kg), (3) non-targeted drug (MMAE, 0.3 mg/kg, 0.42 μmol/kg), or (4) PDC ([^natCu]PDC-1, 6 mg/kg, 0.88 μmol/kg). Dosing of MMAE was 0.3 mg/kg as per maximum dose with no physiological response.[25] The [^natCu]PDC-1 treatment groups consisted of n = 10/tumor model, whil ...

For `CC[C@H](C)[C@@H]([C@@H](CC(=O)N1CCC[C@H]1[C@H](OC)[C@@H](C)C(=O)N[C@H](C)[C@@H](O)c1ccccc1)OC)N(C)C(=O)[C@@H](NC(=O)[C@@H](NC)C(C)C)C(C)C` [MMAE, monomethyl auristatin E] (H-[NMeV]V[Dil][Dolaproine]-X1), the EC50 (DX3puroβ6 (+) cells [1]) was 0.15 ± 0.02 nM, the EC50 (DX3puro (−) cells [2]) was 0.14 ± 0.03 nM and the EC50 (BxPC-3 (+) cells [3]) was 0.5 ± 0.03 nM. The EC50 (MIA PaCa-2 (−) cells [4]) was 0.16 ± 0.01 nM, the “Caspase-3/7 activity (in words)” value (DX3puroβ6 (+) cells [5]) was “increased caspase-3/7 activity” and the “Caspase-3/7 activity (in words)” value (DX3puro (−) cells [6]) was “increased caspase-3/7 activity”. The “Caspase-3/7 activity (in words)” value (BxPC-3 (+) cells [7]) was “increased caspase-3/7 activity”, the “Caspase-3/7 activity (in words)” value (MIA PaCa-2 (−) cells [8]) was “increased caspase-3/7 activity” and the Median survival ([9]; [natCu]2 6 mg/kg, MMAE 0.3 mg/kg i.v. on days 0, 3, 6, 9, n = 8/group) was 37 days. For the same molecule, the “Time by which all mice had met an end point criterion” value ([9]; from start of treatment) was ≤ 64 days and the “Maximum dose with no physiological response” value [10] was 0.3 mg/kg.
